The target in test [1] is T1, Cyp20-3 (Arabidopsis thaliana, UniProt P34791).
T1 construct: recombinant Cyp20-3 WT, His6-tag not cleaved
The test is described as follows: ITC (single-site fit, poor fit noted); intrinsic fluorescence quenching; PPIase activity. The test is classed as binding.

Test [2] addresses T2, Cyp20-3 (Arabidopsis thaliana, UniProt P34791, C206S).
T2 construct: recombinant Cyp20-3 C129S variant, His6-tag not cleaved
The test is described as follows: PPIase activity assay (chymotrypsin-coupled), […] 12-OPDA. The test is classed as biochemical.

The target in test [3] is T3, Cyp20-3 (Arabidopsis thaliana, UniProt P34791, C248S).
T3 construct: recombinant Cyp20-3 C171S variant, His6-tag not cleaved
Kind of test: ITC (single-site fit, poor fit noted). It is filed as binding.

T1 sequence (P34791 78-260): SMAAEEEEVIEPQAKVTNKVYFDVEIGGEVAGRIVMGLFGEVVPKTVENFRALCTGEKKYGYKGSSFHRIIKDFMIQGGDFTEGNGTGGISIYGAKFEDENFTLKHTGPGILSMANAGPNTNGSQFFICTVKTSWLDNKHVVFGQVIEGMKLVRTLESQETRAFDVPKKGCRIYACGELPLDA
T2 sequence (P34791 78-260 C206S): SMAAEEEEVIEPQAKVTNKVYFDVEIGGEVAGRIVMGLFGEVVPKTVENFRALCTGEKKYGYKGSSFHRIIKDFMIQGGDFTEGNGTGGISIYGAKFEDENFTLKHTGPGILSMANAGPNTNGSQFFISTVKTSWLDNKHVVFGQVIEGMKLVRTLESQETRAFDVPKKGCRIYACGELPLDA
T3 sequence (P34791 78-260 C248S): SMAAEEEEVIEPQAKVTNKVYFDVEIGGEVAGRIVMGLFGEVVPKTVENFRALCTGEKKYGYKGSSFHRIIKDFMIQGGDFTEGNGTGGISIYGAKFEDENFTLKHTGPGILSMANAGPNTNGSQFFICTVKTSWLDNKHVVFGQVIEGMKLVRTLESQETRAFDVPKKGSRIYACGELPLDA

The Kd is the concentration at which binding is half-saturated. A high value points to weaker binding. Regarding `CC/C=C\C[C@@H]1C(=O)C=C[C@@H]1CCCCCCCC(=O)O` [12-OPDA, 12-oxophytodienoic acid], the Kd was 35.7 ± 9 µM in test [1] and 26 ± 8 µM in test [3]. Moreover, the “PPIase activity assay (chymotrypsin-coupled), 26 μM 12-OPDA” value in test [2] is 12-OPDA stimulated the activity of oxidized Cyp20-3 WT and C129S to a similar extent.

Values taken from paper PMC8003295, “The In Vitro Interaction of 12-Oxophytodienoic Acid and Related Conjugated Carbonyl Compounds with Thiol Antioxidants” (Biomolecules, 2021).
